From publication PMC9604400, “Synthesis, Anticancer and Antitubercular Properties of New Chalcones and Their Nitrogen-Containing Five-Membered Heterocyclic Hybrids Bearing Sulfonamide Moiety” (International Journal of Molecular Sciences, 2022)
Several values for one entry are separate records, joined by “and”; a condition that tells them apart may be missing. Equal entries are not always repeated.

Legend:
SNB-75 = experiment: NCI-60 screen (SRB), CNS cancer; conditions: Homo sapiens; for IC50: SNB-75; for CC50: SNB-75, read-out: LC50
UACC-62 = experiment: NCI-60 screen (SRB), melanoma; conditions: Homo sapiens; for IC50: UACC-62; for CC50: UACC-62, read-out: LC50
OVCAR-4 = experiment: NCI-60 screen (SRB), ovarian cancer; conditions: Homo sapiens; for IC50: OVCAR-4; for CC50: OVCAR-4, read-out: LC50
OVCAR-5 = experiment: NCI-60 screen (SRB), ovarian cancer; conditions: Homo sapiens; for IC50: OVCAR-5; for CC50: OVCAR-5, read-out: LC50
HOP-92 = experiment: NCI-60 screen (SRB), non-small cell lung cancer; conditions: Homo sapiens; for IC50: HOP-92; for CC50: HOP-92, read-out: LC50
HOP-62 = experiment: NCI-60 screen (SRB), non-small cell lung cancer; conditions: Homo sapiens; for IC50: HOP-62; for CC50: HOP-62, read-out: LC50
colon cancer cell lines = experiment: NCI-60 screen (SRB), colon cancer panel; format: cell-based; conditions: Homo sapiens, single dose 10 μM, read-out: GI (growth inhibition), range over panel
MOLT-4 = experiment: NCI-60 screen (SRB), leukemia; conditions: Homo sapiens; for IC50: MOLT-4; for CC50: MOLT-4, read-out: LC50
HCT-116 = experiment: NCI-60 screen (SRB), colon cancer; conditions: for IC50 / CC50: Homo sapiens; for IC50: HCT-116; for CC50: HCT-116, read-out: LC50
SK-MEL-28 = experiment: NCI-60 screen (SRB), melanoma; conditions: Homo sapiens; for IC50: SK-MEL-28; for CC50: SK-MEL-28, read-out: LC50
HL-60(TB) = experiment: cells; conditions: Homo sapiens; for IC50: HL-60; for CC50: HL-60, read-out: LC50
OVCAR-3 = experiment: NCI-60 screen (SRB), ovarian cancer; conditions: Homo sapiens; for IC50: OVCAR-3; for CC50: OVCAR-3, read-out: LC50
OVCAR-8 = experiment: NCI-60 screen (SRB), ovarian cancer; conditions: Homo sapiens; for IC50: OVCAR-8; for CC50: OVCAR-8, read-out: LC50
HT29 = experiment: NCI-60 screen (SRB), colon cancer; conditions: Homo sapiens; for IC50: HT-29; for CC50: HT-29, read-out: LC50
SK-MEL-2 = experiment: NCI-60 screen (SRB), melanoma; conditions: for IC50 / CC50: Homo sapiens; for IC50: SK-MEL-2; for CC50: SK-MEL-2, read-out: LC50
A498 = experiment: NCI-60 screen (SRB), renal cancer; conditions: Homo sapiens; for IC50: A498; for CC50: A498, read-out: LC50
EKVX = experiment: NCI-60 screen (SRB), non-small cell lung cancer; conditions: Homo sapiens; for CC50: read-out: LC50
K-562 = experiment: NCI-60 screen (SRB), leukemia; conditions: Homo sapiens; for IC50: K562; for CC50: K562, read-out: LC50
DU-145 = experiment: NCI-60 screen (SRB), prostate cancer; conditions: Homo sapiens; for IC50: DU-145; for CC50: DU-145, read-out: LC50
PC-3 = experiment: NCI-60 screen (SRB), prostate cancer; conditions: Homo sapiens; for IC50: PC-3; for CC50: PC-3, read-out: LC50
MALME-3M = experiment: NCI-60 screen (SRB), melanoma; conditions: Homo sapiens; for CC50: read-out: LC50
UO-31 = experiment: NCI-60 screen (SRB), renal cancer; conditions: for IC50 / CC50: Homo sapiens; for IC50: UO-31; for CC50: UO-31, read-out: LC50
NCI-H226 = experiment: NCI-60 screen (SRB), non-small cell lung cancer; conditions: for IC50 / CC50: Homo sapiens; for IC50: NCI-H226; for CC50: NCI-H226, read-out: LC50
SF-268 = experiment: NCI-60 screen (SRB), CNS cancer; conditions: Homo sapiens; for IC50: SF-268; for CC50: SF-268, read-out: LC50
NCI/ADR-RES = experiment: NCI-60 screen (SRB), ovarian cancer; conditions: Homo sapiens; for CC50: read-out: LC50
MDA-MB-468 = experiment: NCI-60 screen (SRB), breast cancer; conditions: for IC50 / CC50: Homo sapiens; for IC50: MDA-MB-468; for CC50: MDA-MB-468, read-out: LC50
leukemia cell lines = experiment: NCI-60 screen (SRB), leukemia panel; format: cell-based; conditions: Homo sapiens
CAKI-1 = experiment: NCI-60 screen (SRB), renal cancer; conditions: Homo sapiens; for IC50: CAKI-1; for CC50: CAKI-1, read-out: LC50
LOX IMVI = experiment: NCI-60 screen (SRB), melanoma; conditions: for IC50 / CC50: Homo sapiens; for CC50: read-out: LC50; for lethality: single dose 10 μM
MDA-MB-231/ATCC = experiment: NCI-60 screen (SRB), breast cancer; conditions: Homo sapiens; for IC50: MDA-MB-231; for CC50: MDA-MB-231, read-out: LC50
A549/ATCC = experiment: NCI-60 screen (SRB), non-small cell lung cancer; conditions: Homo sapiens; for IC50: A549; for CC50: A549, read-out: LC50
[1] = tested on: 60 human cancer cell lines; experiment: NCI-60 screen (SRB), whole panel; format: cell-based
RXF 393 = experiment: NCI-60 screen (SRB), renal cancer; conditions: for IC50 / CC50: Homo sapiens; for IC50: RXF 393; for CC50: RXF 393, read-out: LC50

## COc1cc(OC)c(S(N)(=O)=O)cc1C(=O)/C=C/c1ccc(Cl)cc1 [Compound 17b, (E)-5-(3-(4-Chlorophenyl)acryloyl)-2,4-dimethoxybenzenesulfonamide]
SNB-75
  IC50: 1.5 µM
  CC50: 6.95 µM
UACC-62
  IC50: 2.67 µM
  CC50: 40.8 µM
OVCAR-4
  IC50: 3.54 µM
  CC50: > 100 µM
OVCAR-5
  IC50: 3.18 µM
  CC50: 39 µM
HOP-92
  IC50: 1.46 µM
  CC50: 24.9 µM
HOP-62
  IC50: 2.5 µM
  CC50: 25.9 µM
Colon cancer cell lines
  inhibition at 10 µM: 92.2 to 100%
MOLT-4
  IC50: 2.83 µM
  CC50: > 100 µM
HCT-116
  IC50: 0.75 µM
  CC50: 5.13 µM
SK-MEL-28
  IC50: 3.03 µM
  CC50: 33.4 µM
HL-60(TB)
  IC50: 1.91 µM
  CC50: > 100 µM
OVCAR-3
  IC50: 3.51 µM
  CC50: 66.8 µM
OVCAR-8
  IC50: 3.01 µM
  CC50: > 100 µM
HT29
  IC50: 2.18 µM
  CC50: 9.97 µM
SK-MEL-2
  IC50: 11.5 µM
  CC50: 57.2 µM
A498
  IC50: 18.6 µM
  CC50: 62.2 µM
EKVX
  IC50: 3.88 µM
  CC50: > 100 µM
K-562
  IC50: 1.85 µM
  CC50: > 100 µM
DU-145
  IC50: 3.44 µM
  CC50: 42.2 µM
PC-3
  IC50: 1.6 µM
  CC50: 20.8 µM
MALME-3M
  IC50: 2.79 µM
  CC50: 87.4 µM
UO-31
  IC50: 2.36 µM
  CC50: 33.1 µM
NCI-H226
  IC50: 2.56 µM
  CC50: > 100 µM
NCI-H226; NCI-H226, single dose 10 μM
  lethality: 25.96%
SF-268
  IC50: 3.75 µM
  CC50: > 100 µM
NCI/ADR-RES
  IC50: 3.97 µM
  CC50: > 100 µM
MDA-MB-468
  IC50: 3.08 µM
  CC50: 6.54 µM
MDA-MB-468; MDA-MB-468, single dose 10 μM
  lethality: 57.82%
Leukemia cell lines; leukemia panel, single dose 10 μM, read-out: GI (growth inhibition), range over panel
  inhibition at 10 µM: 92.8 to 100%
CAKI-1
  IC50: 1.89 µM
  CC50: 32.9 µM
LOX IMVI
  IC50: 0.73 µM
  CC50: 7.03 µM
  lethality: 50.40%
MDA-MB-231/ATCC
  IC50: 18.9 µM
  CC50: > 100 µM
A549/ATCC
  IC50: 3.17 µM
  CC50: > 100 µM
[1]; Homo sapiens, five-dose screen, read-out: IC50 values against most cell lines (range)
  IC50: 0.73 to 18.6 µM
[1]; Homo sapiens, single dose 10 μM, mean over 60 cell lines, over 100% = cell death, read-out: Mean growth inhibition (GI) percentage
  inhibition at 10 µM: 94.1%
RXF 393
  IC50: 1.62 µM
  CC50: 6.89 µM
RXF 393; RXF 393, single dose 10 μM
  lethality: 40.37%

## COc1cc(OC)c(S(=O)(=O)N(CCCl)CCCl)cc1C(=O)/C=C/c1cc(OC)c(OC)c(OC)c1 [Compound 18e, (E)-N,N-bis(2-Chloroethyl)-2,4-dimethoxy-5-(3-(3,4,5-trimethoxyphenyl)acryloyl)benzenesulfonamide]
SNB-75
  IC50: 8.53 µM
  CC50: > 100 µM
UACC-62
  IC50: 4.94 µM
  CC50: > 100 µM
OVCAR-4
  IC50: > 100 µM
  CC50: > 100 µM
OVCAR-5
  IC50: 6.8 µM
  CC50: > 100 µM
HOP-92
  IC50: > 100 µM
  CC50: > 100 µM
HOP-62
  IC50: 3.77 µM
  CC50: > 100 µM
MOLT-4
  IC50: 2.04 µM
  CC50: > 100 µM
HCT-116; HCT-116, single dose 10 μM
  lethality: 87.74%
HCT-116
  IC50: 2.82 µM
  CC50: 6.47 µM
SK-MEL-28
  IC50: 3.54 µM
  CC50: 6.88 µM
HL-60(TB)
  IC50: 1.6 µM
  CC50: > 100 µM
OVCAR-3
  IC50: 6.62 µM
  CC50: > 100 µM
OVCAR-8
  IC50: > 100 µM
  CC50: > 100 µM
HT29
  IC50: 5.92 µM
  CC50: > 100 µM
SK-MEL-2
  IC50: 4.65 µM
  CC50: 27.6 µM
SK-MEL-2; SK-MEL-2, single dose 10 μM
  lethality: 94.49%
A498
  IC50: 7.23 µM
  CC50: 65.5 µM
EKVX
  IC50: 2.69 µM
  CC50: > 100 µM
K-562
  IC50: 1.3 µM
  CC50: > 100 µM
DU-145
  IC50: 14.8 µM
  CC50: > 100 µM
PC-3
  IC50: > 100 µM
  CC50: > 100 µM
MALME-3M
  IC50: 7.18 µM
  CC50: > 100 µM
UO-31
  IC50: 2.92 µM
  CC50: 5.51 µM
UO-31; UO-31, single dose 10 μM
  lethality: 93.86%
NCI-H226
  IC50: 2.61 µM
  CC50: > 100 µM
SF-268
  IC50: 7.7 µM
  CC50: > 100 µM
NCI/ADR-RES
  IC50: > 100 µM
  CC50: > 100 µM
MDA-MB-468
  IC50: 3.66 µM
  CC50: 8.84 µM
Leukemia cell lines; read-out: IC50 (GI50), range over leukemia panel
  IC50: 0.99 to 2.52 µM
CAKI-1
  IC50: > 100 µM
  CC50: > 100 µM
LOX IMVI
  IC50: 2.89 µM
  CC50: 5.79 µM
  lethality: 84.53%
MDA-MB-231/ATCC
  IC50: > 100 µM
  CC50: > 100 µM
A549/ATCC
  IC50: 3.11 µM
  CC50: > 100 µM
[1]; single dose 10 μM, mean over 60 cell lines
  mean lethality: 25.48%
[1]; single dose 10 μM, mean over 60 cell lines, over 100% = cell death
  Mean growth inhibition (GI) percentage: 100.00% and 125.48%
RXF 393
  IC50: 2.83 µM
  CC50: 6.44 µM
